Assay results taken from ChEMBL document CHEMBL1142525, “Molecular probes for imaging myelinated white matter in CNS” (J Med Chem, 2008).
The source made the active and inactive calls. The calls are words filed in the database; no cut-off is given here.

Experiments:
[1] = Displacement of [3H]BMB from Sprague-Dawley rat brain myelin fractions; format: tissue-based
[2] = organism: Rattus norvegicus; assay: Binding affinity to Sprague-Dawley rat brain myelin fractions at 12.5 uM after 1 hr by UV spectrophotometry
[3] = test system: Brain; assay: Drug uptake in Swiss Webster mouse brain at 0.185 MBq, iv after 30 mins; format: ADME, organism-based; conditions: in vivo, 0.5 h
[4] = test system: Brain; assay: Drug uptake in Swiss Webster mouse brain at 0.185 MBq, iv after 60 mins; format: ADME, organism-based; conditions: in vivo, 1 h
[5] = test system: Brain; assay: Drug uptake in Swiss Webster mouse brain at 0.185 MBq, iv after 120 mins; format: ADME, organism-based; conditions: in vivo, 2 h
[6] = Partition coefficient, log P in 1-octanol/phosphate buffer at pH 7.40; format: physicochemical; conditions: pH 7.4

Row | SMILES | Ki [1] | Activity [2] | other results
1 | Nc1ccc(/C=C/c2ccc(N)cc2)cc1 | 370 nM |  | 
2 | Nc1ccc(/C=C/c2ccc([125I])cc2)cc1 |  |  | Drug uptake [3]: 2.65 % ID/g; Drug uptake [4]: 2.05 % ID/g; Drug uptake [5]: 1.12 % ID/g; logD [6]: 2.5
3 | Nc1ccc(/C=C/c2ccc(I)cc2)cc1 | 494 nM |  | 

The remaining compounds from weak to strong by Ki [1], led by results:

Row | Ki [1] | Activity [2] | SMILES | other results
4 | 126 nM | Active | CNc1ccc(/C=C/c2ccc(N)cc2)cc1 | 
5 | 119 nM | Active | CN(C)c1ccc(/C=C/c2ccc(N)cc2)cc1 | 
